Measurements reported in PubChem BioAssay AID330 (DTP/NCI, 2004).
“And” between values parts separate entries of the source, which are not always exact repeats. Equal values may be shown once. Inconclusive results and toxic doses are left out. How the source made its calls: active means survival T/C of 150% or more; inactive means T/C below 125% in these data.

Tested on: P388 leukemia ip, CD2F1 mice, survival T/C
Test: NCI In Vivo Anticancer Drug Screen. Data for tumor model P388 Leukemia (intraperitoneal) in CD2F1 (CDF1) mice
Settings: endpoint: median survival time, higher = longer survival
Procedure, shortened: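 Mice carrying the transplanted tumor received test compound or vehicle. Survival was recorded in each group, and the value is the treated-group measurement divided by that of the vehicle-treated control group.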

[1] = dose: 50.0 mg/kg/injection, schedule: Q01DX005 (ip), vehicle: Klucel (hydroxypropylcellulose) (HPC)
[2] = dose: 100.0 mg/kg/injection, schedule: Q01DX005 (ip), vehicle: Klucel (hydroxypropylcellulose) (HPC)
[3] = dose: 200.0 mg/kg/injection, schedule: Q01DX005 (ip), vehicle: Klucel (hydroxypropylcellulose) (HPC)
[4] = dose: 25.0 mg/kg/injection, schedule: Q04DX003 (ip), vehicle: saline with Tween-80
[5] = dose: 50.0 mg/kg/injection, schedule: Q04DX003 (ip), vehicle: saline with Tween-80
[6] = dose: 100.0 mg/kg/injection, schedule: Q04DX003 (ip), vehicle: saline with Tween-80
[7] = dose: 25.0 mg/kg/injection, schedule: Q01DX009 (ip), vehicle: saline with Tween-80
[8] = dose: 50.0 mg/kg/injection, schedule: Q01DX009 (ip), vehicle: saline with Tween-80
[9] = dose: 100.0 mg/kg/injection, schedule: Q01DX009 (ip), vehicle: saline with Tween-80
[10] = dose: 60.0 mg/kg/injection, schedule: Q01DX005 (ip), vehicle: Klucel (hydroxypropylcellulose) (HPC)
[11] = dose: 50.0 mg/kg/injection, schedule: Q01DX009 (ip), vehicle: saline
[12] = dose: 100.0 mg/kg/injection, schedule: Q01DX009 (ip), vehicle: saline
[13] = dose: 200.0 mg/kg/injection, schedule: Q04DX003 (ip), vehicle: saline with Tween-80
[14] = dose: 400.0 mg/kg/injection, schedule: Q04DX003 (ip), vehicle: saline with Tween-80
[15] = dose: 120.0 mg/kg/injection, schedule: Q01DX005 (ip), vehicle: Klucel (hydroxypropylcellulose) (HPC)
[16] = dose: 240.0 mg/kg/injection, schedule: Q01DX005 (ip), vehicle: Klucel (hydroxypropylcellulose) (HPC)
[17] = dose: 25.0 mg/kg/injection, schedule: Q01DX005 (ip), vehicle: saline with Tween-80
[18] = dose: 60.0 mg/kg/injection, schedule: Q01DX005 (ip), vehicle: saline with Tween-80
[19] = dose: 120.0 mg/kg/injection, schedule: Q01DX005 (ip), vehicle: saline with Tween-80
[20] = dose: 240.0 mg/kg/injection, schedule: Q01DX005 (ip), vehicle: saline with Tween-80
[21] = dose: 100.0 mg/kg/injection, schedule: Q01DX005 (ip), vehicle: saline with Tween-80
[22] = dose: 200.0 mg/kg/injection, schedule: Q01DX005 (ip), vehicle: saline with Tween-80

Measured: T/C

CCCCCCCCCCCCS(=O)(=O)CCC(=O)c1ccco1
inactive: dose: 100.0 mg/kg/injection, schedule: Q04DX003 (ip), vehicle: saline 99 % of control | dose: 200.0 mg/kg/injection, schedule: Q04DX003 (ip), vehicle: saline 99 % of control | dose: 400.0 mg/kg/injection, schedule: Q04DX003 (ip), vehicle: saline 97 % of control

COC(=O)C1=C(C(=O)OC)P2(C)(C)ON=C(c3c(C)cc(C)cc3C)N2C1(c1ccccc1)c1ccccc1
inactive: [1] 100 % of control and 95 % of control | [2] 93 % of control | [3] 91 % of control and 94 % of control

CC(=O)OC1CC(n2cc(C)c(=O)[nH]c2=O)OC1COP(=O)(N1CC1)N1CC1 (configuration not stated)
inactive: [4] 104 % of control | [5] 112 % of control | [6] 124 % of control

CC1=COC(C)(C2NC(C)(C)CC(C)O2)CC1 (configuration not stated)
inactive: dose: 50.0 mg/kg/injection, schedule: Q01DX005 (ip), vehicle: saline 107 % of control | dose: 100.0 mg/kg/injection, schedule: Q01DX005 (ip), vehicle: saline 103 % of control | dose: 200.0 mg/kg/injection, schedule: Q01DX005 (ip), vehicle: saline 102 % of control

[NH-]C(CO)C(O)c1ccccc1.[NH-]C(CO)C(O)c1ccccc1.[NH-]C(CO)C(O)c1ccccc1.[Pr+3] (configuration not stated)
inactive: [1] 103 % of control | [2] 97 % of control | [3] 99 % of control

CCCC/C=C/[Se]c1ccccc1
inactive: [7] 101 % of control | [9] 109 % of control
active: [8] 151 % of control

NC(=S)c1cc(Cl)cc(Cl)c1N
inactive: dose: 3.75 mg/kg/injection, schedule: Q01DX005 (ip), vehicle: Klucel (hydroxypropylcellulose) (HPC) 100 % of control | dose: 7.5 mg/kg/injection, schedule: Q01DX005 (ip), vehicle: Klucel (hydroxypropylcellulose) (HPC) 98 % of control | dose: 15.0 mg/kg/injection, schedule: Q01DX005 (ip), vehicle: Klucel (hydroxypropylcellulose) (HPC) 99 % of control and 96 % of control | dose: 30.0 mg/kg/injection, schedule: Q01DX005 (ip), vehicle: Klucel (hydroxypropylcellulose) (HPC) 94 % of control | [10] 92 % of control

C=CCC(NC(=O)CCl)C(=O)O (configuration not stated)
inactive: [11] 92 % of control | [12] 90 % of control

CC(=O)N1C(=O)N(Cl)C(=O)C1(C)c1cccs1 (configuration not stated)
inactive: [6] 100 % of control | [13] 95 % of control | [14] 90 % of control

Cc1ccc(S(=O)(=O)NCc2cccc([N+](=O)[O-])c2)cc1
inactive: [10] 94 % of control | [15] 104 % of control | [16] 98 % of control

CCOP(=O)(Cc1ccc(-c2nc3ccccc3o2)cc1)OCC
inactive: [11] 103 % of control | [12] 100 % of control | dose: 200.0 mg/kg/injection, schedule: Q01DX009 (ip), vehicle: saline 99 % of control

Cc1ccc(S(=O)(=O)Nc2ccc(-c3cc4cc(Cl)ccc4o3)cc2)cc1
inactive: dose: 6.25 mg/kg/injection, schedule: Q01DX005 (ip), vehicle: saline with Tween-80 92 % of control | dose: 12.5 mg/kg/injection, schedule: Q01DX005 (ip), vehicle: saline with Tween-80 91 % of control | [17] 87 % of control

N#C/C(=C\c1cccc2ccccc12)c1ccc(Cl)cc1
inactive: [5] 94 % of control | [6] 97 % of control | [13] 103 % of control | [14] 97 % of control

OCC1CC(c2ccccc2)=NO1 (configuration not stated)
inactive: [10] 101 % of control | [15] 100 % of control | [16] 101 % of control

ICCN(CCI)c1ccc2c(ccc3ccccc32)c1
inactive: dose: 100.0 mg/kg/injection, schedule: Q04DX003 (ip), vehicle: Klucel (hydroxypropylcellulose) (HPC) 102 % of control | dose: 200.0 mg/kg/injection, schedule: Q04DX003 (ip), vehicle: Klucel (hydroxypropylcellulose) (HPC) 118 % of control | dose: 400.0 mg/kg/injection, schedule: Q04DX003 (ip), vehicle: Klucel (hydroxypropylcellulose) (HPC) 118 % of control

CN1CCCC2C(c3ccccc3)C(C3=NCCCC3)C(c3ccccc3)CC21 (configuration not stated)
inactive: [7] 100 % of control | [4] 113 % of control | [8] 100 % of control | [5] 100 % of control | [9] 104 % of control | [6] 100 % of control

O=C(NCCN1CCNCC1)c1ccc(Cl)cc1
inactive: [18] 97 % of control | [19] 92 % of control | [20] 93 % of control

Cc1ccc2nc3c(nc2c1)n(-c1ccccc1)c(=O)n3-c1cccc(Cl)c1
inactive: dose: 50.0 mg/kg/injection, schedule: Q01DX005 (ip), vehicle: saline with Tween-80 90 % of control | [21] 100 % of control | [22] 101 % of control

Nc1[nH]c(=S)ncc1-c1ccccc1Cl
inactive: [18] 98 % of control | [19] 95 % of control | [20] 93 % of control

CC1(C)C=C(C(Br)c2ccccc2)C(=O)c2ccccc21 (configuration not stated)
inactive: dose: 25.0 mg/kg/injection, schedule: Q01DX009 (ip), vehicle: other 100 % of control | dose: 44.0 mg/kg/injection, schedule: Q01DX009 (ip), vehicle: other 112 % of control | dose: 50.0 mg/kg/injection, schedule: Q01DX009 (ip), vehicle: other 118 % of control | dose: 150.0 mg/kg/injection, schedule: Q01DX009 (ip), vehicle: other 121 % of control | dose: 200.0 mg/kg/injection, schedule: Q01DX009 (ip), vehicle: other 116 % of control

COc1ccc2c(c1OC)C(CC(C)=O)N1CCc3cc4c(cc3C1C2=O)OCO4 (configuration not stated)
inactive: [10] 100 % of control | [15] 92 % of control | [16] 88 % of control

NC(=O)C1=Cc2cc(Cl)ccc2OC1
inactive: dose: 6.25 mg/kg/injection, schedule: Q01DX009 (ip), vehicle: saline with Tween-80 97 % of control | dose: 12.5 mg/kg/injection, schedule: Q01DX009 (ip), vehicle: saline with Tween-80 102 % of control | [7] 92 % of control | [8] 106 % of control

CN(C)c1ccc(/C=N\N=C/c2ccc(N(C)C)cc2)cc1
inactive: [10] 88 % of control | [15] 87 % of control | [16] 86 % of control

O=C1c2nc[nH]c2C(=O)c2c1nc[nH]c2=O
inactive: dose: 3.75 mg/kg/injection, schedule: Q01DX005 (ip), vehicle: other 101 % of control | dose: 7.5 mg/kg/injection, schedule: Q01DX005 (ip), vehicle: other 100 % of control | dose: 15.0 mg/kg/injection, schedule: Q01DX005 (ip), vehicle: other 106 % of control | dose: 30.0 mg/kg/injection, schedule: Q01DX005 (ip), vehicle: other 102 % of control

Fc1cccc2c(C#Cc3ccccc3)c3ccccc3c(C#Cc3ccccc3)c12
inactive: dose: 1.5 mg/kg/injection, schedule: Q01DX005 (ip), vehicle: saline with Tween-80 100 % of control | dose: 3.0 mg/kg/injection, schedule: Q01DX005 (ip), vehicle: saline with Tween-80 100 % of control | dose: 6.0 mg/kg/injection, schedule: Q01DX005 (ip), vehicle: saline with Tween-80 97 % of control | [17] 92 % of control | [21] 94 % of control | [22] 87 % of control

Cc1cc(-n2c(C)nc3ccccc3c2=O)on1
inactive: [10] 101 % of control | [15] 93 % of control | [16] 104 % of control

O=C(C[n+]1cccc2ccccc21)c1ccc(F)cc1
inactive: dose: 50.0 mg/kg/injection, schedule: Q01DX009 (ip), vehicle: Klucel (hydroxypropylcellulose) (HPC) 119 % of control | dose: 100.0 mg/kg/injection, schedule: Q01DX009 (ip), vehicle: Klucel (hydroxypropylcellulose) (HPC) 97 % of control | dose: 200.0 mg/kg/injection, schedule: Q01DX009 (ip), vehicle: Klucel (hydroxypropylcellulose) (HPC) 91 % of control

O=C(Nc1ccc(C2=NCCN2)c(O)c1)c1cccc(C(=O)Nc2ccc(C3=NCCN3)c(O)c2)c1
inactive: dose: 25.0 mg/kg/injection, schedule: Q01DX005 (ip), vehicle: Klucel (hydroxypropylcellulose) (HPC) 97 % of control | [1] 97 % of control | [2] 97 % of control | [3] 102 % of control
